Source: patent US11077113B2, “6-aryl-4-morpholin-1-ylpyridone compounds useful for the treatment of cancer and diabetes” (priority 2016, dated 2021)

Tests used:
Vps34 enzyme = Vps34 enzyme (Homo sapiens (Human), UniProt Q8NEB9); experiment: Vps34 Biochemical Assay (Adapta TR-FRET); conditions: 20 μM ATP and 200 μM PI:PS in substrate mix, 1 h at room temperature, read-out: Median IC50 μM Adapta
Procedure: Dilution series of compounds of the invention were prepared in DMSO at 100 times the final assay concentration (n1=n0/3 in 10 points). The compounds were further diluted to 4 times the assay concentration in assay buffer (Life technologies buffer Q, PV5125, diluted 5 times supplemented with 2 mM DTT and 2 mM MnCl2). 2.5 μl of the diluted compounds were added to a 384 well assay plate followed by 2.5 μl of 16.5 nM Vps34 enzyme (Life technologies, PV5126). Enzyme and compounds were preincubated at rt for 15 min. Then 5 μl of substrate mix containing 20 μM ATP (Life technologies, PV3227) and 200 μM PI:PS substrate (Life technologies, PV5122) in assay buffer was added to the wells containing compound and enzyme and mixing was performed by pipetting several times. The reaction was incubated at room temperature for 1 h. Then 5 μl stop-detection mix, prepared as described in the adapta kinase assay kit instructions (Life technologies, PV5099) containing Adapta Eu-anti-ADP antibody (2.3 nM), Alexa Fluor 647 ADP tracer (9 nM) and EDTA (30 mM) in TR-FRET buffer, was added to quench the reaction. Mixing was performed by pipetting several times. The assay plate was then incubated at room temperature for 30 min and read with Artemis micro plate reader. Percent inhibition of the compounds as compared to DMSO treated control samples was calculated. By the use of Dotmatics software compound concentration versus percent inhibition was fitted to generate IC50 values.

autophagy in HOS cells = experiment: High Content Screening Autophagy Assay (GFP-LC3 foci); type: cell-based; conditions: Homo sapiens; HOS cells expressing GFP-LC3; autophagy activated with KU-0063794 500 nM plus Bafilomycin A1 5 nM; 6 hours; foci area per cell; read-out: Median IC50 μM Cellular assay
Procedure: High Content Screening Autophagy Assay
Human osteosarcoma cells (HOS) stably expressing a Green Fluorescent Protein (GFP) tagged LC3 (GFP-LC3) were used to determine the inhibitory effect on autophagy of proprietary compounds. For that purpose, autophagy was activated by using the mTOR inhibitor KU-0063794 at 500 nM in the presence of Bafilomycin A1 (Sigma-Aldrich) at 5 nM. Shortly, cells were plated overnight in clear bottom 96-well plates in DMEM-High Modified media (Hi-Clone Cat #SH30285.01). At the start of the experiment, the media was removed and replaced with fresh media containing the mTOR inhibitor, Bafilomycin A1 and the vehicle or a test compound as indicated. After 6 hours the media was removed, cells were washed twice with ice-cold phosphate buffered saline (PBS) and fixed with 4% paraformaldehyde for 20 minutes at room temperature. Then the cells were washed twice with ice-cold PBS before adding Hoechst 33342 at 1 μg/ml in PBS for nuclear staining. After incubation overnight at 4° C., cells were washed once with PBS to remove the excess of dye and 100 μl of PBS was added to each well. Images were acquired at 20× magnification, 6 images per well, using the ImageXpress automated microscope (Molecular Devices Inc.) and analyzed with MetaXpress software to identify LC3-GFP foci. Foci area per cell values were used to generate dose response curves and IC50 calculated using non-linear fitting analysis in GraphPad Prism software.
The results of the assay are shown in Table 2 (Median IC50 μM Cellular assay).

Sequence of Vps34 enzyme (Q8NEB9 whole entry): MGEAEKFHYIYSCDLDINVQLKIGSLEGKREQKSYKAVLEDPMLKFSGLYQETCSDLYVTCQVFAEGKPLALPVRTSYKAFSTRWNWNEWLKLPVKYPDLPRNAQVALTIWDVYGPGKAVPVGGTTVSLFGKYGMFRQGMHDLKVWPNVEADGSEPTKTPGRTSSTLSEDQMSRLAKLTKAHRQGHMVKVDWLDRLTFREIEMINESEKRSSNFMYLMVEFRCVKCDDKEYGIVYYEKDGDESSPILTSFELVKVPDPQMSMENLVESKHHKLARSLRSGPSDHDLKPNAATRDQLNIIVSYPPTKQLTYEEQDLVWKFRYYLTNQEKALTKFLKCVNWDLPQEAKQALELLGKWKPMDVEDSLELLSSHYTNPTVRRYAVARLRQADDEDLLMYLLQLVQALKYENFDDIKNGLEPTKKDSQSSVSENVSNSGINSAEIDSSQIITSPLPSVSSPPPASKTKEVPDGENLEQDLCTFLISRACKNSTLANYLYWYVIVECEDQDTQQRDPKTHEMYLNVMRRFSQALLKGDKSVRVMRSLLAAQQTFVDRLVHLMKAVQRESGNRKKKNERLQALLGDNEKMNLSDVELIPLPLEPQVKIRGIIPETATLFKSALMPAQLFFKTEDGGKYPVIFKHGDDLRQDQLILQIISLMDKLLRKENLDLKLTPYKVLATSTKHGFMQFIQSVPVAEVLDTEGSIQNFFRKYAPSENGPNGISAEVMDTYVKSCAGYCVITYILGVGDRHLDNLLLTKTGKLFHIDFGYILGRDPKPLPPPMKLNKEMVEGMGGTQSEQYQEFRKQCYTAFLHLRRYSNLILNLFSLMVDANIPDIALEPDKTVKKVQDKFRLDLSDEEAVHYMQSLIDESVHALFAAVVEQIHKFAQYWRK

SMILES	IC50 (Vps34 enzyme) [µM]	IC50 (autophagy in HOS cells) [µM]
C[C@@H]1COCCN1c1cc(-c2ccccc2C(F)(F)F)[nH]c(=O)c1 [Example 12, 4-[(3R)-3-methylmorpholin-4-yl]-6-[2-(trifluoromethyl)phenyl]-1H-pyridin-2-one]	0.007	0.6
CC1COCCN1c1cc(-c2ccccc2Cl)[nH]c(=O)c1 (stereo not drawn) [Example 3, 6-(2-chlorophenyl)-4-(3-methylmorpholin-4-yl)-1H-pyridin-2-one]	0.01	0.7
C[C@@H]1COCCN1c1cc(-c2ccccc2NS(C)(=O)=O)[nH]c(=O)c1 [Example 15, N-[2-[4-[(3R)-3-methylmorpholin-4-yl]-6-oxo-1H-pyridin-2-yl]phenyl]methanesulfonamide]	0.2	–
CC1COCCN1c1cc(-c2ccccc2-c2ccccc2)[nH]c(=O)c1 (stereo not drawn) [Example 7, 4-(3-methylmorpholin-4-yl)-6-(2-phenylphenyl)-1H-pyridin-2-one]	0.06	–
CC1COCCN1c1cc(-c2ccccc2Cl)n(C)c(=O)c1 (stereo not drawn) [Example 4, 6-(2-chlorophenyl)-1-methyl-4-(3-methylmorpholin-4-yl)pyridin-2-one]	0.02	1
C[C@@H]1COCCN1c1cc(-c2ccoc2)[nH]c(=O)c1 [Example 13, 6-(3-furyl)-4-[(3R)-3-methylmorpholin-4-yl]-1H-pyridin-2-one]	0.2	–
C[C@@H]1COCCN1c1cc(-c2ccc(-c3ccn[nH]3)cc2)[nH]c(=O)c1 [Example 17, 4-[(3R)-3-methylmorpholin-4-yl]-6-[4-(1H-pyrazol-5-yl)phenyl]-1H-pyridin-2-one]	0.2	–
Cc1ccncc1-c1cc(N2CCOCC2C)cc(=O)[nH]1 (stereo not drawn) [Example 5, 4-(3-methylmorpholin-4-yl)-6-(4-methyl-3-pyridyl)-1H-pyridin-2-one]	0.1	14
Cc1ccc2ncccc2c1-c1cc(N2CCOC[C@H]2C)cc(=O)[nH]1 [Example 16, 4-[(3R)-3-methylmorpholin-4-yl]-6-(6-methyl-5-quinolyl)-1H-pyridin-2-one]	0.2	–
Cc1cscc1-c1cc(N2CCOC[C@H]2C)cc(=O)[nH]1 [Example 14, 4-[(3R)-3-methylmorpholin-4-yl]-6-(4-methyl-3-thienyl)-1H-pyridin-2-one]	0.03	–
C[C@@H]1COCCN1c1cc(-c2ccccc2Cl)[nH]c(=O)c1 [Example 11, 6-(2-chlorophenyl)-4-[(3R)-3-methylmorpholin-4-yl]-1H-pyridin-2-one]	0.007	0.6
O=c1cc(N2CCOCC2)cc(-c2ccccc2Cl)[nH]1 [Example 1, 6-(2-chlorophenyl)-4-morpholino-1H-pyridin-2-one]	0.03	2
C[C@@H]1COCCN1c1cc(-c2cc(F)ccc2Cl)[nH]c(=O)c1 [Example 8, 6-(2-chloro-5-fluoro-phenyl)-4-[(3R)-3-methylmorpholin-4-yl]-1H-pyridin-2-one]	0.01	1
CC1COCCN1c1cc(-c2cncnc2)[nH]c(=O)c1 (stereo not drawn) [Example 6, 4-(3-methylmorpholin-4-yl)-6-pyrimidin-5-yl-1H-pyridin-2-one]	1	14
Cc1ccccc1-c1cc(N2CCOC[C@H]2C)cc(=O)[nH]1 [Example 9, 4-[(3R)-3-methylmorpholin-4-yl]-6-(o-tolyl)-1H-pyridin-2-one]	0.03	–
Cn1c(-c2ccccc2Cl)cc(N2CCOCC2)cc1=O [Example 2, 6-(2-chlorophenyl)-1-methyl-4-morpholino-pyridin-2-one]	0.05	3
C[C@@H]1COCCN1c1cc(-c2cccnc2C(F)(F)F)[nH]c(=O)c1 [Example 10, 4-[(3R)-3-methylmorpholin-4-yl]-6-[2-(trifluoromethyl)-3-pyridyl]-1H-pyridin-2-one]	0.02	0.09
